The results in this text go back to EP2926811A1, “ARTEMETHER-CONTAINING PHARMACEUTICAL COMPOSITION, PREPARATION, AND USE THEREOF” (Kunming Pharmaceutical Corp., priority 2012, dated 2014).

This assay has as its system nude-mouse transplanted tumor of human gastric cancer MKN-45. Nature of the assay: growth of nude-mouse transplanted tumor of human gastric cancer MKN-45. To be noted: positive control, 10 mg/kg iv, day 19.

Consider `O=c1[nH]cc(F)c(=O)[nH]1` [5-Fu, 5-fluorouracil], for which the RTV was 10.60±2.28 and the “T/C (%)” value came out at 37.72%.
